The source of these data is US20240335497A1, “PULSE PROTEIN-BASED COMPOSITION FOR ACTIVATING THE SYNTHESIS OF FGF19” (ROQUETTE FRERES, priority 2021, published 2024).

This assay deals with FGF19. Description: Expression of FGF19 mRNA in HT29 cells by RT-qPCR. The class given is cell-based, human. Particulars: 6 h; for increase of expression of the FGF19 gene compared to control (carrier=DMSO): Example 5, HT29 cells; for increase of expression of the FGF19 gene compared with control (carrier=DMSO): Example 6, HT29 cells. An excerpt: For cell cultures, the HT29 (ECACC 91072201), HT29-MTX and Caco-2 lines derived from a human colorectal adenocarcinoma are used, conventionally used as cell lines representative of human enterocytes. The cells are systematically cultured in Dulbecco's Modified Eagle Medium (DMEM): 4.5 g/L of glucose supplemented with 1% of sodium pyruvate, 1% of penicillin-streptomycin and 10% of decomposed fetal-bovine serum (FBS) (Eurobio, Les Ulis, France). For the 12-well and 96-well plate experiments, the HT29 cells were seeded with a density of 7.5×10^4 cells/cm^2 with a medium changed every 2 days and the cells were exposed to different experimental conditions 2 days after confluence with a depleted complete medium in FBS. For the 12-well plates (Costar®, Cambridge, MA), Caco-2 and HT29-MTX cells were seeded in a ratio of 1:1 with a density of 2.5×10^4 cells/cm^2. The cells were cultured for 14 days in a complete medium to allow differentiation. The medium was changed in the two compartments every two days until exposure to the complete medium was depleted in the FBS. The integrity of the cellular monolayer was evaluated by measuring the transepithelial electrical resistance (TEER) using a Millicell-ERS (Millipore Corp., Billerica, MA). The cell culture was sourced from Dutscher (Issy-les-Moulineaux, France), unless specified otherwise.
The various conditions of the carrier as PD were dissolved in PBS and the agonists were dissolved in DMSO. After exposure, the cell supernatants were stored at −80° C. for the measurements of the secretion of FGF19 proteins, and the cell monolayers were maintained at −80° C. until total extraction of the RNA.
The effect of this exposure is measured by quantifying the messenger RNA of the FGF19 using the following protocol: the expression of the target genes was evaluated by quantifying their mRNA level in the cells by RT-qPCR. The total RNA was isolated using the TRI-Reagent solution (Sigma Aldrich). First-strand complementary DNA was synthesized from 1 μg of total RNA using the TAKARA Prime ScriptMC RT reagent kit (TAKARA Bio, Saint-Germain-en-Laye, France). The qPCR tests were carried out using the SYBR® Premix Ex-Taq™ kit (TAKARA Bio) on Rotor-Gene™ 6000 (Corbet Research, Mortlake, Australia). The mRNA levels of the human TATA binding protein (TBP) were used to normalize the data.
[FIG. 1] summarizes the results obtained. The HT29 cells were exposed to the various PDs alone or in combination with an FXR agonist to determine their potential capacity to increase the expression of the FGF19 gene. […]
The capacity of the RQ3 and RQ7 digestates to increase the level of expression of the FGF19 mRNA and also the production and secretion of proteins was then evaluated. […]

Each structure is given as a SMILES string.

For `CC(C)c1onc(-c2c(Cl)cccc2Cl)c1COc1ccc(C=Cc2cccc(C(=O)O)c2)c(Cl)c1` [GW4064, 3-(2,6-Dichlorophenyl)-4-(3′-carboxy-2-chlorostilben-4-yl)oxymethyl-5-isopropylisoxazole], the “increase of expression of the FGF19 gene compared to control (carrier=DMSO)” value is listed as 2 times (GW4064 0.1 μM alone) and 6.2 times (GW4064 1 μM alone). For the same compound, the “increase of expression of the FGF19 gene compared with control (carrier=DMSO)” value was 2.3 times (GW4064 0.1 μM alone) and 6.6 times (GW4064 1 μM alone).
